Results on six compounds are retold here after patent US20240182531A1, “KV1.3 Blockers” (priority 2021, published 2024).

The structures appear in SMILES notation. pIC50: −log10 of the molar value. Read-outs that look alike come from different tables or passages of the source. Where a SMILES comes first, the peptide text is derived from it. Bridges are numbered along the chain shown (N, C = ends). [ ]: non-standard residue; d: D form. Nle = CCCC[C@H](N)C(=O)O

Experiment [1] has as its target T1, human Kv1.3 voltage-gated K+ channel (Homo sapiens, UniProt P22001).
T1 construct: host or cells: CHO-DUKX
Briefly: Kv1.3 blocker activity in FLIPR thallium assay. Type of experiment: cell-based. As for the experimental part: A human Kv1.3 voltage-gated K+ channel cell line was purchased from Perkin Elmer (#TDS-AX-010-C-1). The cell line is based on CHO-DUKX cells stably transfected with the human Kv1.3 voltage-gated K+ channel.
The cell line was grown in MEMα with nucleotides, GlutaMAX (Gibco #32571028), 10% Foetal Bovine Serum (FBS), 0.4 mg/ml Geneticin, 100 units/ml Penicillin, and 100 μg/ml Streptomycin and seeded at 10.000 cells/well in black poly-D-lysine-coated 96 well plates.
The FluxOR™ Potassium Ion Channel Assay (Invitrogen #F10016) was used to quantitate flux of thallium ions into the cells as a response to Kv1.3 activation with a stimulus buffer causes depolarization of the cell membrane, thereby generating a fluorescent signal, proportional to channel activity. The assay was performed as described by the assay kit manufacturer including a compound pre-incubation step (30 min, 37° C., 5% CO2) in assay buffer containing 0.02% W/v casein from bovine milk (Sigma #C4765) prior to cell membrane depolarization using a final stimuli buffer composition corresponding to 0.2× FluxOR™ chloride-free buffer, 5 mM K2SO4, 1 mM Tl2SO4. The fluorescence responses were recorded and quantified (maximum response at 50 s, 37° C.) using the FLIPR® Tetra High Throughput Screening System (Molecular Devices, Inc.).
IC50 can be regarded as a measure of potency of inhibition for the respective compound. The IC50 value is a measure of the concentration of an inhibitor required to achieve half of that compound's maximal inhibition of ion channel activity in a given assay.

In the next experiment the target is T2, human Kv1.1 (Homo sapiens, UniProt Q09470).
T2 construct: expressed in transfected cells; host or cells: CHO
T2 sequence (Q09470 whole entry): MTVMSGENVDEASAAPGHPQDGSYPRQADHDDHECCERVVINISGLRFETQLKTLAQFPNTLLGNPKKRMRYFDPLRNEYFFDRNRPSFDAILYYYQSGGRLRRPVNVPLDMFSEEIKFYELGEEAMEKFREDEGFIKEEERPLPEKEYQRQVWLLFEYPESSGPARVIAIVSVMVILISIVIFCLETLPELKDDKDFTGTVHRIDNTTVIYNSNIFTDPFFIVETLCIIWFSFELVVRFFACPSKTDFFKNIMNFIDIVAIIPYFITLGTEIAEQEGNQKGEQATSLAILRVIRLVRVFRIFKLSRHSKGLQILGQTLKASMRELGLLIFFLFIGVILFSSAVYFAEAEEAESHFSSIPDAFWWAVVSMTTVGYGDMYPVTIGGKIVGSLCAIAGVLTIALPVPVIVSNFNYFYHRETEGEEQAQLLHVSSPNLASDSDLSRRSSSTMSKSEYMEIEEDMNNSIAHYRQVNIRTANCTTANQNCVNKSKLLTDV
Briefly: cell-based.

Another experiment addresses T3, human Kv1.6 (Homo sapiens, UniProt P17658).
T3 construct: expressed in transfected cells; host or cells: CHO
The experiment is described as follows: cell-based.

The test system of experiment [2] is KLH ear inflammation model in rats. In kind it is in vivo, rat.
Another experiment has as its target T4, human Kv1.2 (Homo sapiens, UniProt P16389).
T4 construct: expressed in transfected cells; host or cells: CHO
The experiment is described as follows: cell-based.

The target in a further experiment is Rat whole blood (Rattus norvegicus, UniProt P15384). In kind it is cell-based.
Chain of Rat whole blood (P15384 whole entry): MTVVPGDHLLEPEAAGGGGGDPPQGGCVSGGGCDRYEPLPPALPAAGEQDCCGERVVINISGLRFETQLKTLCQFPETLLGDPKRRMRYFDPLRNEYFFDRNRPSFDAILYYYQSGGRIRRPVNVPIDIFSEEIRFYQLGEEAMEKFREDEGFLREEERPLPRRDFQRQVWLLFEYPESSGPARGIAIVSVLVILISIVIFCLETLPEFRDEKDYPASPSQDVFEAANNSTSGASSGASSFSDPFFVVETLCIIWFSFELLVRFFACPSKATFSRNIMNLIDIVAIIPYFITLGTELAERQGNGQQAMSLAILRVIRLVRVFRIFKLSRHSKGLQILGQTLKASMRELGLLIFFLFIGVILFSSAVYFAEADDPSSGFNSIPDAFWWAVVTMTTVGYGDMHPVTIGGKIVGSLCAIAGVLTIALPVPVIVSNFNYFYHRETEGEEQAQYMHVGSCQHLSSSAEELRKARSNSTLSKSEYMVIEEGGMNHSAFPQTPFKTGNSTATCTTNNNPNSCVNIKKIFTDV
Setting [3] is: ratio of patch clamp IC50 values.
Setting [4] is: 100 nmol/kg SC 24 hrs prior to KLH ear challenge, +/− SD.
[5] abbreviates: IL-17A release, thapsigargin, 24 Hr, at least 2 replicates.

By pIC50 is commonly meant the negative decadic logarithm of the IC50, by convention in mol/L.

T4 sequence (P16389 whole entry): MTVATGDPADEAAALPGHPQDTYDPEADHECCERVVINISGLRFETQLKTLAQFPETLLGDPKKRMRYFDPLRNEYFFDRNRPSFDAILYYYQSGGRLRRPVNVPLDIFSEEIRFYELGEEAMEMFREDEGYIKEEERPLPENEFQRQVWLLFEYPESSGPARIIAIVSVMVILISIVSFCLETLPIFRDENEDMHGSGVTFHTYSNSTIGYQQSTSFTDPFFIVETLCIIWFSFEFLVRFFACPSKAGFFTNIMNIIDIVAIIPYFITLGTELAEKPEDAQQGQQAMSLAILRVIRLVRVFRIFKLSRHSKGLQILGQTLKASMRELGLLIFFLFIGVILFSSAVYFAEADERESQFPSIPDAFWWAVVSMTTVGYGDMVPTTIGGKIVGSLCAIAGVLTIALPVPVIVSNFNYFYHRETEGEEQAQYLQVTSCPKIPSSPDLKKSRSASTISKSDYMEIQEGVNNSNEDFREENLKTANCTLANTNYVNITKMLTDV
T3 sequence (P17658 whole entry): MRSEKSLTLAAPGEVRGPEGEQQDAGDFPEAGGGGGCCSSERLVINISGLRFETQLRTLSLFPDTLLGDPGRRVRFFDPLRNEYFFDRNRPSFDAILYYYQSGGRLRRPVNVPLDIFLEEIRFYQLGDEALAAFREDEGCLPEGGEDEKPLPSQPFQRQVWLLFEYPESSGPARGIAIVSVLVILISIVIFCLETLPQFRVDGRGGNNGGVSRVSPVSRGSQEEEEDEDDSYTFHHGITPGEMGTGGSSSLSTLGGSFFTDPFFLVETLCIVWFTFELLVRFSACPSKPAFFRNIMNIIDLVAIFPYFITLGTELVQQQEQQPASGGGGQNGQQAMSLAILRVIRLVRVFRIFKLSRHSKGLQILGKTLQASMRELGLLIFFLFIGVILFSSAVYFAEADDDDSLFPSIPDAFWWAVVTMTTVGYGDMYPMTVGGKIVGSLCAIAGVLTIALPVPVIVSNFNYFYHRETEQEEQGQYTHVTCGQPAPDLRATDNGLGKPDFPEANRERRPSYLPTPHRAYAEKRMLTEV
T1 sequence (P22001 whole entry): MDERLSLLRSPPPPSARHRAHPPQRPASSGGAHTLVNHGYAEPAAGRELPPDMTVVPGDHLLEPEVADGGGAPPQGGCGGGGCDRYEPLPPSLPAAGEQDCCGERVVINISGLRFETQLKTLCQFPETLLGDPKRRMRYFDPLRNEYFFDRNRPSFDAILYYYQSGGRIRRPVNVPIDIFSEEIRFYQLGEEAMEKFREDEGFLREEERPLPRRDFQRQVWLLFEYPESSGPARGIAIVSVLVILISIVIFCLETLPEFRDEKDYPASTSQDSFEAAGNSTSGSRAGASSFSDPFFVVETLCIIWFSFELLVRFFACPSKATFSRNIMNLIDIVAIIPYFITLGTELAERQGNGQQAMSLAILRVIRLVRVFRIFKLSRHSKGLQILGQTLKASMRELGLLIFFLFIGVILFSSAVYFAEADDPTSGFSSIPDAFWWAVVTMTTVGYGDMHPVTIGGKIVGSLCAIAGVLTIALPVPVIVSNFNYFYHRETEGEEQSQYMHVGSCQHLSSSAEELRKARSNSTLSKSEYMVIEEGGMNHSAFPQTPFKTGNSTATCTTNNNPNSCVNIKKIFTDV

In turn, `CCCC[C@H](NC(=O)[C@@H]1CCCN1)C(=O)N[C@@H](CCC(=O)O)C(=O)N[C@@H](CCCC)C(=O)N[C@@H](CCCNC(=N)N)C(=O)N[C@H]1CSSC[C@@H]2NC(=O)[C@H](CCCCN)NC(=O)CNC(=O)[C@H](Cc3ccccc3)NC(=O)[C@H]([C@@H](C)CC)NC(=O)[C@H](CO)NC(=O)CNC(=O)[C@H]([C@@H](C)CC)NC(=O)[C@H](C)NC(=O)[C@H](C)NC(=O)[C@H](CC(C)C)NC(=O)[C@@H]3CSSC[C@@H](C(=O)N[C@@H](Cc4ccc(O)cc4)C(=O)N4CCC[C@H]4C(=O)N[C@@H](CCCNC(=N)N)C(N)=O)NC(=O)[C@H](CCCCN)NC(=O)[C@H](CSSC[C@H](NC(=O)[C@H](CCC(=O)O)NC(=O)[C@H](C(C)C)NC(=O)[C@H](CO)NC(=O)[C@H](C)NC(=O)[C@H](CCCNC(=N)N)NC1=O)C(=O)N[C@@H](C)C(=O)N[C@@H](CCC(N)=O)C(=O)N[C@@H](CO)C(=O)N3)NC(=O)[C@H](CCCCN)NC(=O)CNC(=O)[C@H](CC(N)=O)NC(=O)[C@H](CCCC)NC2=O` [compound 11] (H-P[Nle]E[Nle]RCRASVECAQSCLAAIGSIFGKC[Nle]NGKCKCYPR-NH2; disulfide 6-27, 12-32, 16-34) gave a pIC50 in experiment [1] of 9.66.
Consider `CCCC[C@H](NC(=O)[C@@H]1CCCN1)C(=O)N[C@@H](CCC(=O)O)C(=O)N[C@@H](CCCC)C(=O)N[C@@H](CCCNC(=N)N)C(=O)N[C@H]1CSSC[C@@H]2NC(=O)[C@H](CCCCN)NC(=O)CNC(=O)[C@H](Cc3ccccc3)NC(=O)[C@H]([C@@H](C)CC)NC(=O)[C@H](CO)NC(=O)CNC(=O)[C@H]([C@@H](C)CC)NC(=O)[C@H](C)NC(=O)[C@H](C)NC(=O)[C@H](CC(C)C)NC(=O)[C@@H]3CSSC[C@@H](C(=O)N[C@@H](Cc4ccc(O)cc4)C(=O)N4CCC[C@H]4C(=O)N[C@@H](CCCNC(=N)N)C(N)=O)NC(=O)[C@H](CCCCN)NC(=O)[C@H](CSSC[C@H](NC(=O)[C@H](CCC(=O)O)NC(=O)[C@H](CCCNC(=N)N)NC(=O)[C@H](CO)NC(=O)[C@H](C)NC(=O)[C@H](CO)NC1=O)C(=O)N[C@@H](C)C(=O)N[C@@H](CCC(N)=O)C(=O)N[C@@H](CO)C(=O)N3)NC(=O)[C@H](CCCCN)NC(=O)CNC(=O)[C@H](CC(N)=O)NC(=O)[C@H](CCCC)NC2=O` [compound 12] (H-P[Nle]E[Nle]RCSASRECAQSCLAAIGSIFGKC[Nle]NGKCKCYPR-NH2; disulfide 6-27, 12-32, 16-34), for which, in experiment [1], the pIC50 is 9.35.
Turning to `CC[C@H](C)[C@@H]1NC(=O)[C@H](C)NC(=O)[C@H](C)NC(=O)[C@H](CC(C)C)NC(=O)[C@@H]2CSSC[C@@H](C(=O)N[C@@H](Cc3ccc(O)cc3)C(=O)N3CCC[C@H]3C(=O)N[C@@H](CCCNC(=N)N)C(N)=O)NC(=O)[C@H](CCCCN)NC(=O)[C@@H]3CSSC[C@H](NC(=O)[C@H](CCC(=O)O)NC(=O)[C@H](C(C)C)NC(=O)[C@H](CO)NC(=O)[C@H](C)NC(=O)[C@H](CO)NC(=O)[C@@H](NC(=O)[C@H](CCCNC(=N)N)NC(=O)[C@H](CCSC)NC(=O)[C@H](CC(=O)O)NC(=O)[C@H](CCSC)NC(=O)[C@@H](N)CC(N)=O)CSSC[C@H](NC(=O)[C@H](CCCCN)NC(=O)CNC(=O)[C@H](Cc4ccccc4)NC(=O)[C@H]([C@@H](C)CC)NC(=O)[C@H](CO)NC(=O)CNC1=O)C(=O)N[C@@H](CCSC)C(=O)N[C@@H](CC(N)=O)C(=O)N[C@@H](CCCCN)C(=O)N[C@@H](CCCCN)C(=O)N3)C(=O)N[C@@H](CCCCN)C(=O)N[C@@H](CCC(N)=O)C(=O)N[C@@H](CCCCN)C(=O)N2` [compound 56] (H-NMDMRCSASVECKQKCLAAIGSIFGKCMNKKCKCYPR-NH2; disulfide 6-27, 12-32, 16-34), on human Kv1.1 (setting [3]), the “Selectivity ratio Kv1.1/Kv1.3” value is more than 27500. Moreover, the “Selectivity ratio Kv1.6/Kv1.3” value at human Kv1.6 (setting [3]) is more than 27500. Further, the “% inhibition of ear thickness (AUC of Δ ear thickness 0-48 hours)” value in experiment [2] (setting [4]) is 25.1 (+/−6.3) %. On human Kv1.2 (setting [3]), the “Selectivity ratio Kv1.2/Kv1.3” value is 803. Further, at Rat whole blood (setting [5]), the pIC50 was 9.16.
In the case of `CCCC[C@@H]1NC(=O)[C@@H]2CSSC[C@H](NC(=O)[C@H](CCCNC(=N)N)NC(=O)[C@H](CCCC)NC(=O)[C@H](CC(=O)O)NC(=O)[C@@H](NC(=O)[C@@H](N)CC(N)=O)[C@@H](C)CC)C(=O)N[C@@H](CO)C(=O)N[C@@H](C)C(=O)N[C@@H](CO)C(=O)N[C@@H](C(C)C)C(=O)N[C@@H](CCC(=O)O)C(=O)N[C@H]3CSSC[C@H](NC(=O)[C@H](CCCCN)NC(=O)[C@H](CCCCN)NC(=O)[C@H](CC(N)=O)NC1=O)C(=O)N[C@@H](CCCCN)C(=O)N[C@H](C(=O)N[C@@H](Cc1ccc(O)cc1)C(=O)N1CCC[C@H]1C(=O)N[C@@H](CCCNC(=N)N)C(=O)O)CSSC[C@H](NC(=O)[C@H](CCCCN)NC(=O)[C@H](CCC(N)=O)NC(=O)[C@H](CCCCN)NC3=O)C(=O)N[C@@H](CC(C)C)C(=O)N[C@@H](CCCCN)C(=O)N[C@@H](C)C(=O)N[C@@H]([C@@H](C)CC)C(=O)NCC(=O)N[C@@H](CO)C(=O)N[C@@H]([C@@H](C)CC)C(=O)N[C@@H](Cc1ccccc1)C(=O)NCC(=O)N[C@@H](CCCCN)C(=O)N2` [compound 91] (H-NID[Nle]RCSASVECKQKCLKAIGSIFGKC[Nle]NKKCKCYPR-OH; disulfide 6-27, 12-32, 16-34), the “Selectivity ratio Kv1.1/Kv1.3” value on human Kv1.1 (setting [3]) is recorded as more than 11300. Moreover, at human Kv1.6 (setting [3]), the “Selectivity ratio Kv1.6/Kv1.3” value is more than 11300. In addition, the “% inhibition of ear thickness (AUC of Δ ear thickness 0-48 hours)” value in experiment [2] (setting [4]) worked out at 39.6%. Further, the “Selectivity ratio Kv1.2/Kv1.3” value at human Kv1.2 (setting [3]) worked out at 7756. The same compound showed a pIC50 against Rat whole blood (setting [5]) of 8.92.
On to `CCCC[C@@H]1NC(=O)[C@@H]2CSSC[C@H](NC(=O)[C@H](CCCNC(=N)N)NC(=O)[C@H](CCCC)NC(=O)[C@H](CCC(=O)O)NC(=O)[C@@H](NC(=O)[C@@H]3CCCN3)[C@@H](C)CC)C(=O)N[C@@H](CO)C(=O)N[C@@H](C)C(=O)N[C@@H](CO)C(=O)N[C@@H](C(C)C)C(=O)N[C@@H](CCC(=O)O)C(=O)N[C@H]3CSSC[C@H](NC(=O)[C@H](CCCCN)NC(=O)[C@H](CCCCN)NC(=O)[C@H](CC(N)=O)NC1=O)C(=O)N[C@@H](CCCCN)C(=O)N[C@H](C(=O)N[C@@H](Cc1ccc(O)cc1)C(=O)N1CCC[C@H]1C(=O)N[C@@H](CCCNC(=N)N)C(=O)O)CSSC[C@H](NC(=O)[C@H](CCCCN)NC(=O)[C@H](CCC(N)=O)NC(=O)[C@H](CCCCN)NC3=O)C(=O)N[C@@H](CC(C)C)C(=O)N[C@@H](C)C(=O)N[C@@H](C)C(=O)N[C@@H]([C@@H](C)CC)C(=O)NCC(=O)N[C@@H](CO)C(=O)N[C@@H]([C@@H](C)CC)C(=O)N[C@@H](Cc1ccccc1)C(=O)NCC(=O)N[C@@H](CCCCN)C(=O)N2` [compound 95] (H-PIE[Nle]RCSASVECKQKCLAAIGSIFGKC[Nle]NKKCKCYPR-OH; disulfide 6-27, 12-32, 16-34), for which, at human Kv1.1, the “Selectivity ratio Kv1.1/Kv1.3” value is more than 8600. Also, the “Selectivity ratio Kv1.6/Kv1.3” value at human Kv1.6 is listed as more than 8600. Also, the “% inhibition of ear thickness (AUC of Δ ear thickness 0-48 hours)” value in experiment [2] (rat, in vivo) came to 44.5%. The “Selectivity ratio Kv1.2/Kv1.3” value on human Kv1.2 came out at 5630. At Rat whole blood, this compound showed a pIC50 of 9.21.
Consider `CCCC[C@H](NC(=O)[C@@H]1CCCN1)C(=O)N[C@@H](CCC(=O)O)C(=O)N[C@@H](CCCC)C(=O)N[C@@H](CCCNC(=N)N)C(=O)N[C@H]1CSSC[C@@H]2NC(=O)[C@H](CCCCN)NC(=O)CNC(=O)[C@H](Cc3ccccc3)NC(=O)[C@H]([C@@H](C)CC)NC(=O)[C@H](CO)NC(=O)CNC(=O)[C@H]([C@@H](C)CC)NC(=O)[C@H](C)NC(=O)[C@H](C)NC(=O)[C@H](CC(C)C)NC(=O)[C@@H]3CSSC[C@@H](C(=O)N[C@@H](Cc4ccc(O)cc4)C(=O)N4CCC[C@H]4C(=O)N[C@@H](CCCNC(=N)N)C(=O)O)NC(=O)[C@H](CCCCN)NC(=O)[C@H](CSSC[C@H](NC(=O)[C@H](CCC(=O)O)NC(=O)[C@H](C(C)C)NC(=O)[C@H](CO)NC(=O)[C@H](C)NC(=O)[C@H](CO)NC1=O)C(=O)N[C@@H](C)C(=O)N[C@@H](CCC(N)=O)C(=O)N[C@@H](CCCCN)C(=O)N3)NC(=O)[C@H](CCCCN)NC(=O)[C@H](CCCCN)NC(=O)[C@H](CC(N)=O)NC(=O)[C@H](CCCC)NC2=O` [compound 97] (H-P[Nle]E[Nle]RCSASVECAQKCLAAIGSIFGKC[Nle]NKKCKCYPR-OH; disulfide 6-27, 12-32, 16-34), for which the “Selectivity ratio Kv1.1/Kv1.3” value at human Kv1.1 (setting [3]) was more than 5500. Moreover, the “Selectivity ratio Kv1.6/Kv1.3” value at human Kv1.6 (setting [3]) is more than 5500. Moreover, in experiment [2] (setting [4]), the “% inhibition of ear thickness (AUC of Δ ear thickness 0-48 hours)” value is 48.9%. In addition, on human Kv1.2 (setting [3]), the “Selectivity ratio Kv1.2/Kv1.3” value is listed as 5500. Besides, on Rat whole blood (setting [5]), the negative-log IC50 (pIC50) is 8.92.
